{"source": "patent US20210332024A1", "about": "“MODULATORS OF PIN1 ACTIVITY AND USES THEREOF” (Yeda Research and Development Co. Ltd., priority 2019, published 2021)", "key": {"Pin1": {"molecular_target": "T1, Pin1 (Homo sapiens, UniProt Q13526)", "T1 construct": "endogenous in cells; host or cells: patient-derived PDAC cells", "test": "Pin1 levels in PDAC cells (Western blot)", "type": "cell-based", "details": "treated for 3 days", "procedure": "(§1) Pancreatic ductal adenocarcinoma (PDAC) cells (derived from a human patient) were treated with Pin1-3 for 3 days. PDAC organoids were treated with Pin1-3 for 7 days (day 7 to day 14)."}, "[1]": {"system": "300 suspension and hematopoietic human cancer cell lines", "test": "PRISM anti-proliferative profiling", "type": "cell-based", "details": "120 h, all 300 cancer cell lines, 5-day treatment", "description": "In order to profile the anti-proliferative activity of Pin1-3, the compound was submitted to the PRISM platform (Broad Institute) to evaluate its potency against 300 suspension and hematopoietic human cancer cell lines. The PRISM method enables high-throughput, pooled screening of mixtures of cell lines, which are each labeled with a 24-nucleotide barcode [Yu et al., Nat Biotechnol 2016, 34:419-423]."}, "Pin1 in PATU-8988T cells": {"molecular_target": "T2, Pin1 in PATU-8988T cells (Homo sapiens, UniProt Q13526)", "T2 construct": "endogenous in cells; host or cells: PATU-8988T", "test": "Live cell competition assay with Pin1-3-DTB pull-down, PATU-8988T cells", "type": "cell-based", "procedure": "The indicated cells were treated with increasing concentrations of either DMSO, Pin1-3, or Pin1-3-AcA for 5 hours. Cells were harvested by scraping and washed twice with PBS before lysis with 50 mM HEPES (pH 7.4), 1 mM EDTA, 10% glycerol, 1 mM TCEP, 150 mM NaCl, 1 mM EDTA, 0.5% NP-40, and protease inhibitor tablet (Roche cat. #4693159001). After clarifying (14,000 rpm for 15 minutes), samples were treated with the indicated concentrations of Pin1-3-DTB at 4° C. for 1 hour. Lysates were then incubated with streptavidin agarose resin (Thermo Scientific, cat. #20349) for 1.5 hour at 4° C. Beads were washed four times with 500 μl of washing buffer (50 mM HEPES (pH 7.5), 10 mM NaCl, 1 mM EDTA, 10% glycerol), then pelleted by centrifugation and dried. The beads were boiled for 5 minutes at 95° C. in 2×LDS+10% β-mercaptoethanol. Proteins of interest were then assessed via Western blotting using the bolt system (Life Technologies).\nThe indicated cells were plated in 10 cm plates with 2.5 million cells per plate in 6 ml of medium. The day after plating, cells were treated with the indicated concentrations of candidate inhibitor for the indicated time points. The cells were then washed two times with cold phosphate buffer saline (1 ml per 10 cm plate) and collected by scraping with a cell scraper. Cells were lysed in 50 mM HEPES (pH 7.4), 1 mM EDTA, 10% glycerol, 1 mM TCEP, 150 mM NaCl, 1 mM EDTA, 0.5% NP-40, and protease inhibitor tablet (Roche)-using 210 μl of cell lysis buffer per 10 cm plate of cells. After clarifying (14,000 rpm for 15 minutes), 9 μl of each lysate sample was combined with […] of 4×LDS+10% β-mercaptoethanol (in a ratio of 3:1), boiled for 5 minutes, and set aside for the input loading control. Then, 200 μl of each lysate sample was incubated with 1 μM of Pin1-3-DTB for 1 hour at 4° C. and processed as described hereinabove for the lysate pull-down assays.\nIn order to assess cell permeability of Pin1-3 as well as its ability to engage cellular Pin1, PATU-8988T cells were treated with Pin1-3 (0.25 to 1 μM) for 5 hours. After cell lysis, the lysates were incubated with Pin1-3-DTB (1 μM, 1 hour at 4° C.) and probe-labeled targets were pulled down with streptavidin beads."}, "[2]": {"system": "Pancreatic ductal adenocarcinoma (PDAC) cells", "test": "PDAC cell growth", "type": "cell-based, human", "details": "treated for 3 days", "procedure": "as §1"}, "[3]": {"system": "KPC mouse derived tumor cells", "test": "KPC orthotopic transplantation mouse model", "type": "in vivo, mice", "details": "IP 20 or 40 mg/kg every day", "procedure": "10^6 KPC (KrasLSL.G12D/+; p53R172H/+; PdxCretg/+) mouse derived tumor cells were transplanted into B6 mice pancreas (orthotopic transplantation). After 1 week of the transplantation, treatment of mice with Pin1-3 began. Mice were treated (IP) with Pin1-3 diluted solution (as a control), or 20 or 40 mg/kg every day. Tumor size was measured, and when the tumor size in control group reached 2 cm, mice were sacrificed to collect tumor tissue (n=4), and Kaplan-Meier survival analysis (n=8) was performed."}, "[4]": {"system": "cysteine residues on a proteome-wide scale, PATU-8988T cells", "test": "CITe-Id chemoproteomic selectivity experiment", "type": "cell-based", "details": "PATU-8988T cells, 100, 500 or 1000 nM for 5 hours", "procedure": "In order to profile the selectivity of Pin1-3, a Covalent Inhibitor Target-site Identification (CITe-Id) experiment [Browne et al., […] 2019, 141, 191-203] was performed, as depicted in FIG. 28.\nThis chemoproteomic platform enables the identification and quantification of the dose-dependent binding of covalent inhibitors to cysteine residues on a proteome-wide scale. In this competition experiment, live PATU-8988T cells were incubated with Pin1-3 (100, 500 or 1000 nM) for 5 hours, followed by cell lysis and co-incubation with Pin1-3-DTB (2 μM) for 18 hours. Following trypsin digest and avidin enrichment, the DTB-modified peptides were analyzed by shotgun LC-MS/MS."}, "[5]": {"system": "Kuramochi ovarian carcinoma cells", "test": "Prolonged-treatment cell growth, Kuramochi", "type": "cell-based", "details": "1 or 2.5 μM", "procedure": "The ability of Pin1-3 treatment to induce more pronounced anti-proliferative effects after prolonged treatment (6-8 days) was then assessed. In order to ensure that target engagement was maintained for the duration of the experiment, Pin1-3 was replenished in fresh media every 48 hours."}, "MDA-MB-231 cells": {"system": "MDA-MB-231 cells", "test": "Cell viability assay (CellTiter-Glo)", "type": "cell-based", "details": "Homo sapiens; cell viability assay with MDA-MB-231 cells", "procedure": "MDA-MB-231 cells grew in DMEM medium supplemented with 10% FCS (fetal calf serum), 1% PS (penicillin-streptomycin) and 1% L-glutamine (all from Biological Industries). Exclusion of mycoplasma contamination was monitored and conducted by test with MycoAlert™ kit (Lonza). Cells were trypsinized and counted, and 1000 cells/well were plated in 50 μl of growth medium into 384-well white TC plates (Greiner) using Multidrop™ 384 (Thermo Scientific) Washer Dispenser II. The number of viable cells was monitored using CellTiter-Glo® Luminescent kit (Promega) in accordance with the manufacturer's protocol. Luminescence was measured using luminescence module of PHERAstar™ FS plate reader (BMG Labtech). Data analysis was performed using GeneData 12 analytic software. Assay ready plate preparation: Compounds transferred into black microplates (Greiner 784900) using Labcyte Echo® acoustic dispensing technology. Assay ready plates were then sealed with heat seals. If not used immediately, plates were frozen at −20° C. and held in polypropylene boxes with silica-gel desiccant.\nExemplary Pin1-binding compounds were also tested for non-selective cytotoxicity in a viability assay against IMR90 lung fibroblasts."}}, "note": "pEC50, pIC50: −log10 of the molar value."}
{"compound": "CC(C)(C)CN(C(=O)CCl)C1CCS(=O)(=O)C1", "note": "(stereo not drawn) [Pin1-3, 2-chloro-N-(sulfolan-3-yl)-N-neopentylacetamide]", "values": [{"measurement": "Pin1 levels in PDAC cells", "setting": "Pin1", "value": "reduced Pin1 in PDAC cells in a dose-dependent manner"}, {"measurement": "pIC50", "setting": "[1]", "value": "< 5.52"}, {"measurement": "Engagement of Pin1 after 2 hours", "setting": "Pin1 in PATU-8988T cells; 1 μM", "value": "about 50%"}, {"measurement": "Time to complete engagement of Pin1", "setting": "Pin1 in PATU-8988T cells; 1 μM", "value": "≤ 4", "unit": "h"}, {"measurement": "Competition with Pin1-3-DTB for Pin1 binding (pull-down)", "setting": "Pin1 in PATU-8988T cells; 0.25 to 1 μM for 5 hours (Pin1-3-AcA 1 μM)", "value": "dose-dependent inhibition of Pin1-3-DTB pull-down"}, {"measurement": "Concentration of maximal competition", "setting": "Pin1 in PATU-8988T cells; 5 hours", "value": 1, "unit": "µM"}, {"measurement": "PDAC cell growth", "setting": "[2]", "value": "inhibited tumor growth of PDAC cells in a dose-dependent manner"}, {"measurement": "KPC tumor growth", "setting": "[3]", "value": "inhibited KPC tumor growth"}, {"measurement": "Survival (Kaplan-Meier)", "setting": "[3]", "value": "enhanced survival"}, {"measurement": "Dose-dependent competition among 162 cysteine residues labeled by Pin1-3-DTB", "setting": "[4]", "value": "only Pin1 Cys113 exhibited dose-dependent competition"}, {"measurement": "Cell growth", "setting": "[5]", "value": "long-term inhibition"}, {"measurement": "pEC50", "setting": "MDA-MB-231 cells", "value": "< 4.60"}]}
